For assay [1], the target named is T1, V1b receptor (Homo sapiens, UniProt P47901).
T1 construct: expressed in transfected cells; host or cells: CHO-K1 (ATCC), vector PCI-neo
T1 sequence (P47901 1-424): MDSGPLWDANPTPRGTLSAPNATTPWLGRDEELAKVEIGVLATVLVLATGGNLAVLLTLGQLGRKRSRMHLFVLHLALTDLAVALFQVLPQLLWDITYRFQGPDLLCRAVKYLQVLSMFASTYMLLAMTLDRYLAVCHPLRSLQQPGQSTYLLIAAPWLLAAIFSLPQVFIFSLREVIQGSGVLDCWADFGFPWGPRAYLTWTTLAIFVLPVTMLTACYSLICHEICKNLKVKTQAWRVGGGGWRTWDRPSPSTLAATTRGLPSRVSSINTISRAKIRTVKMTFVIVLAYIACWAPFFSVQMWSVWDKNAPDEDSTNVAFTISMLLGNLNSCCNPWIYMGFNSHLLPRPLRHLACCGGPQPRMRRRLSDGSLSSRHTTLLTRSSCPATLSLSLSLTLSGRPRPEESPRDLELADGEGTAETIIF
The assay can be described thus: Human or rat vasopressin V1b cell-based receptor binding assay. The note with it: selectivity table; read-out: inhibition data (Ki, nM), Receptor V1b. An excerpt:
Human vasopression V1b receptor-expressing cells. Human vasopressin receptor 1b (hV1b) cDNA (see, Lolait et al., “Extrapituitary expression of the rat V1b vasopressin receptor gene” Proc. Natl. Acad. Sci. USA. 92:6783-7 (1995); de Keyzer et al., “Cloning and characterization of the human V3(V1b) pituitary vasopressin receptor” FEBS Lett. 356:215-20 (1994); Sugimoto et al., “Molecular cloning and functional expression of a cDNA encoding the human V1b vasopressin receptor” J. Biol. Chem. 269:27088-92 (1994)) was inserted into a mammalian cell expression vector PCI-neo (Promega) at EcoR1 site. The recombinant plasmid carrying hV1b cDNA was identified from transformed E. Coli clones and used for the transfection of Chinese hamster ovary cell (CHO-K1, ATCC). Two micrograms of hV1b receptor DNA was introduced into 10^5 CHO cells cultured in 6-well plate, using Fugene-6 mediated transfection technique (Boehringer Mannheim). Twenty-four hrs post transfection, Cells were then cultured under selection of G-418 (0.25 mg/ml) supplemented to the culture medium. Three days later, limited dilution was carried out to obtain single cell clones in 96-well plates. […]
Human or rat vasopression V1b cell-based receptor binding assay. […] Samples were counted in a liquid scintillation counter (Beckman LS3801). IC50 and Ki values were calculated using Prism Curve fitting software. […]

For assay [2], the target named is V2 (Homo sapiens, UniProt P30518). Description: V2 receptor inhibition data (Ki). The class given is binding. The note with it: selectivity table.
The subject of assay [3] is resident male rats. The assay can be described thus: Resident-Intruder Model of Stress and Aggression in Rats (neuroimaging). Type of assay: in vivo, rat. To be noted: oral administration, intruder stimulus. The text has this: Resident-Intruder Model of Stress and Aggression in Rats. Neuroimaging is used to assess the blockade of stress/arousal with test compound compared to control. The effect of AVN251-HCl on functional circuitry was examined using the imaging method for awake rats. Additional details of the assay are described in Ferris et al. (2008).
Male rats in the company of a female cage mate will piloerect in the presence of a male intruder. This piloerection is a sign of stress and aggressive intent and is associated with activation of stress/arousal circuits in the brain. […] Resident male rats from six male:female pairs were imaged while fully awake. During a single imaging session, these males were treated with vehicle or AVN251-HCl (5 mg/kg).
The total volume of brain activation for resident males confronted with their mate alone, mate plus intruder, and mate plus intruder in the presence of AVN251-HCl can be viewed as 3D models. While there appears to be a general decrease in BOLD signal in major regions with AVN251-HCl treatment, sexual motivation, as assessed by the presentation of a novel receptive female, was unaffected by V1a receptor blockade.
Stress circuit activation in response to an intruder male is assessed by obtaining brain scans viewed from a caudal/dorsal perspective as translucent shells. The localization of activated voxels is mapped as 3D volumes of activation, which are composed of 10 subjects each. Once fully registered and segmented, the statistical responses for each subject are averaged on a voxel-by-voxel basis. Those averaged voxels exceeding a 2.0% threshold are shown in their appropriate spatial location. Functional images are acquired on awake rats at 4.7 T.
The 3D volumes of activation are composed from results obtained with 10 subjects in each condition. […] Particular olfactory systems measured included the anterior olfactory nucleus, olfactory tubercle, piriform cortex, n. laterial olfactory tract, and entrorhinal cortex. Particular dopaminergic systems measured included the prelimbic cortex, accumbens, ventral pallidum, medial dorsal thalamus, and ventral tegmentum.
Awake rats were imaged when presented with their mate+an intruder, a highly stressful stimulus.

Molecules are shown by their SMILES. Bounds are passed on as bounds.

Sequence of V2 (P30518 whole entry): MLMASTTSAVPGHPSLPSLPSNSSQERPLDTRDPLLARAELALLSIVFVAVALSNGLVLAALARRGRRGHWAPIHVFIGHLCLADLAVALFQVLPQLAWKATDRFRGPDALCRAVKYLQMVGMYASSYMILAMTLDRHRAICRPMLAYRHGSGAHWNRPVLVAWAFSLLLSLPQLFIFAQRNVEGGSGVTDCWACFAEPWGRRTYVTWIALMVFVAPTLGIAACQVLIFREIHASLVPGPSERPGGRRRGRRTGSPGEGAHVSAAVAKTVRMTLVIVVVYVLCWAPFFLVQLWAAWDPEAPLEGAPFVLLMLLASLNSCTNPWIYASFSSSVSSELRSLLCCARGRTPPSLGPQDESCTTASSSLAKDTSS

The term Ki denotes the equilibrium dissociation constant of an inhibitor or competing ligand from its target. With `C[C@@H](NC(=O)[C@@H](CC(=O)N1CCC(N2CCCCC2)CC1)N1C(=O)[C@@H](N2C(=O)OC[C@@H]2c2ccccc2)[C@H]1C=Cc1ccccc1)c1ccccc1` [Example 224, 2(R)-[[4-(Piperidinyl)piperidinyl]carbonylmethyl]-2-[3(S)-(4(S)-phenyloxazolidin-2-on-3-yl)-4(R)-(2-styryl)azetidin-2-on-1-yl]acetic acid N—[(R)-α-methylbenzyl]amide], the Ki in assay [1] and in assay [2] was greater than 1000 nM in each case. Moreover, in assay [3], the “stress and aggressive motivation compared to controls” value is “blocked stress and aggressive motivation”.

The record behind these values is US9376424B2, “Methods for treating post traumatic stress disorder” (AZEVAN PHARMACEUTICALS, INC., priority 2010, dated 2016).
